Literature values as cited in PMC8241576 (Biophysical Journal, 2021).

Conditions: in water at 25°C

SMILES: Cl.N=c1ccc2c(-c3ccccc3C(=O)O)c3ccc(N)cc3oc-2c1 [Rh110, Rhodamine 110]
- diffusion coefficient: 4.4 × 10^−6 cm^2 s^−1
- hydrodynamic radius of free dye: ~0.56 nm
